Measurements from PubChem BioAssay (NCI).
“And” between values parts separate entries of the source, which are not always exact repeats. Equal entries are not always repeated.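 Test compounds were applied to cells in 96-well plates for 48 hours at 5 doses. At the GI50, growth is halved. TGI is the concentration that stops growth completely.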

Key:
Test in all cases: NCI anticancer screen, dose series, 48 h
OVCAR-8 ovarian = tested on: OVCAR-8 ovarian
SF-539 CNS = tested on: SF-539 CNS
CCRF-CEM leukemia = tested on: CCRF-CEM leukemia
DU-145 prostate = tested on: DU-145 prostate
SK-MEL-28 melanoma = tested on: SK-MEL-28 melanoma
RXF 393 renal = tested on: RXF 393 renal
M14 melanoma = tested on: M14 melanoma
786-0 renal = tested on: 786-0 renal
KM12 colon = tested on: KM12 colon
HCT-116 colon = tested on: HCT-116 colon

Row | SMILES | GI50 (OVCAR-8 ovarian) | TGI (OVCAR-8 ovarian) | GI50 (SF-539 CNS) | TGI (SF-539 CNS) | GI50 (CCRF-CEM leukemia) | TGI (CCRF-CEM leukemia) | GI50 (DU-145 prostate) | TGI (DU-145 prostate) | GI50 (SK-MEL-28 melanoma) | TGI (SK-MEL-28 melanoma) | GI50 (RXF 393 renal) | TGI (RXF 393 renal) | GI50 (M14 melanoma) | TGI (M14 melanoma) | GI50 (786-0 renal) | TGI (786-0 renal) | GI50 (KM12 colon) | TGI (KM12 colon) | GI50 (HCT-116 colon) | TGI (HCT-116 colon)
1 | CC1(C)N=c2cc3c(cc2N1c1ccc(Cl)cc1)=Nc1ccccc1N3c1ccc(Cl)cc1 | 4.01 µM | 51.9 µM | 8.97 µM | > 100 µM | 2.6 µM | 13.9 µM | 7.45 µM | > 100 µM | 45.3 µM | > 100 µM | 1.75 µM | 5.77 µM | 9.32 µM | > 100 µM | 9.66 µM | > 100 µM | 6.84 µM | > 100 µM | 3.68 µM | > 100 µM
2 | CCOC(=O)Nc1ccc2c(c1)C(=O)N(CC)c1ccccc1O2 | 0.235 µM | > 100 µM | 0.0942 µM | 0.643 µM | 0.0889 µM | > 100 µM | 0.127 µM |  | 12.5 µM | > 100 µM | 0.0277 µM | 54.9 µM | 0.0617 µM | > 100 µM | 0.434 µM | > 100 µM | 0.0661 µM | > 100 µM | 0.0829 µM | > 100 µM
3 | COc1c(C)c(OC)c(C(=O)CC(C)C)c(OC)c1C |  | > 100 µM |  | > 100 µM |  | > 100 µM |  | > 100 µM |  | > 100 µM |  | > 100 µM |  | > 100 µM |  | > 100 µM |  | > 100 µM |  | > 100 µM
4 | O=c1cc(-c2ccccc2)oc2c1ccc1ccccc12 | 26 µM | > 100 µM | 18.6 µM | 76.1 µM | 22.8 µM | 73.8 µM | 30.6 µM | > 100 µM | 29.3 µM | > 100 µM | 24.1 µM | 64.4 µM | 61.1 µM | > 100 µM | 27.9 µM | > 100 µM | 24.9 µM | 89.2 µM | 20.3 µM | > 100 µM
5 | FC(F)(F)c1cc(NC(=S)N2c3ccccc3-n3cccc3C2c2cccnc2)cc(C(F)(F)F)c1 (stereo not given) | 4.65 µM | 15.3 µM | 14.7 µM | 37.4 µM | 4.1 µM | 33.7 µM | 10.6 µM | 24.3 µM | 15.7 µM | 37.1 µM | 11 µM | 35.8 µM | 11.3 µM | 28.2 µM | 5.31 µM | 18.7 µM | 8.9 µM | 32 µM | 12.4 µM | 40.3 µM
6 | CC(=O)Nc1ccc(OC(C)=O)cc1 | < 0.01 µM | > 49.1 µM | < 0.01 µM | 0.766 µM | < 0.01 µM | > 49.8 µM | < 0.0105 µM | 0.0172 µM | < 0.01 µM | 48 µM | < 0.01 µM | 6.3 µM | < 0.01 µM | 3.32 µM | < 0.01 µM | 5.52 µM | < 0.01 µM | 12.1 µM | < 0.01 µM | 0.204 µM
7 | CC1OC(CC(=O)O)Cc2c1c(O)c1c(O)cc(-c3cc(=O)c4c(=O)c5c(c(=O)c=4c3=O)CC(CC(=O)O)OC5C)c(O)c1c2O (stereo not given) |  | 75.9 µM | 59.3 µM | 36 µM |  | > 48.2 µM | 26.2 µM | 96.2 µM | 79.5 µM | 29.5 µM | 12 µM | 20.3 µM and 27 µM | 24.4 µM | 32 µM and 75.9 µM | 32.1 µM | 46.7 µM | 32.5 µM | > 100 µM | 30.4 µM | 27.2 µM
8 | CC(C)=Cc1cccc2[nH]c(O)c(N=Nc3ccc(S(N)(=O)=O)cc3)c12 | 5 µM | > 25 µM | 2.72 µM | > 20.1 µM | 1.23 µM | > 25 µM | 5.09 µM | > 25 µM | > 25 µM | > 25 µM | 0.987 µM | > 19.4 µM | > 25 µM | > 25 µM | 9.07 µM | > 25 µM | 0.1 µM | > 18.6 µM | 1.74 µM | > 14.3 µM
9 | O=C1OC(c2ccc(Cl)cc2)=N/C1=C\c1ccccc1 |  | > 100 µM |  | > 100 µM |  | > 100 µM |  | > 100 µM |  | > 100 µM |  | > 100 µM |  | > 100 µM |  | > 100 µM |  | > 100 µM |  | > 100 µM
10 | CCN(CC)CCCNc1n[n+]([O-])c2ccccc2[n+]1[O-] |  | 29.3 µM |  | 68.9 µM |  | > 100 µM |  | 66.9 µM |  | > 100 µM |  | 76.2 µM |  | > 100 µM |  | 33.4 µM |  | 63 µM |  | 57.3 µM
11 | CC1(C)CCc2c(c(N=Nc3ccccc3F)c3ccccc3c2O)O1 | 23.3 µM | 51.4 µM | 21.2 µM | 40.4 µM | > 100 µM | > 100 µM | 87.5 µM | > 100 µM | > 100 µM | > 100 µM | 79 µM | > 100 µM | > 100 µM | > 100 µM | 26.1 µM | 60.3 µM | 23 µM | 65.1 µM | 27.7 µM | > 100 µM
12 | C/C(CC(C)(C)N1CC1)=N\NC(=O)Nc1cccc2ccccc12 | 2.64 µM | 13.4 µM | 3.35 µM | 15.7 µM | 2.37 µM | 20.6 µM | 3.07 µM | 9.85 µM | 7.07 µM | 19.8 µM | 2.08 µM | 5.46 µM | 4.25 µM | 15.2 µM | 3.04 µM | 9.87 µM | 4.13 µM | 15.7 µM | 3.32 µM | 11.5 µM
13 | C#CCOC(=O)/C=C/C(=O)Oc1ccc2c(C)cc(=O)oc2c1 | > 100 µM | > 100 µM | > 100 µM | > 100 µM | > 100 µM | > 100 µM | > 100 µM | > 100 µM | > 100 µM | > 100 µM | > 100 µM | > 100 µM | > 100 µM | > 100 µM | > 100 µM | > 100 µM | > 100 µM | > 100 µM | > 100 µM | > 100 µM
14 | CN[C@@H](Cc1cccc2ccccc12)C(=O)N[C@@H](CC(C)C)B(O)O | 0.0259 µM | 0.0844 µM | 0.00473 µM | 0.0167 µM |  | 0.0354 µM | 0.0515 µM | 0.219 µM and 0.315 µM | 0.0119 µM | 0.0271 µM | 0.018 µM | 0.0353 µM |  | 0.145 µM | 0.037 µM | 0.18 µM and 0.0671 µM | 0.0203 µM | 0.0444 µM and 0.0193 µM | 0.0118 µM | 0.0285 µM
